Columns and labels:
[1] = Protein binding in fresh human serum (size-exclusion MicroSpin G-50); assay type: in vitro ADME; details: for Protein binding (%) (mean, n = 2): 37 °C; for protein binding: after 24-h incubation period
Experimental: Protein binding studies were performed by incubating radiolabelled siderophore (1–2 μg/150 μl) in fresh human serum (850 μl) and in PBS (850 μl) (control) at 37 °C for various time points (30, 60 and 120 min for [^68Ga]siderophores and 1, 4 and 24 h for [^89Zr]siderophores). After incubation, 25 μl of the sample was separated by size-exclusion chromatography (MicroSpin™ G-50 Columns; Sephadex G-50 (GE Healthcare, Buckinghamshire, UK)) by centrifugation at 2000×g for 2 min. Protein binding of radiolabelled siderophores was determined by measuring the activity distributed between the column (non protein-bound) and the eluate (protein-bound) using the automatic gamma counter.

[2] = Partition coefficient determination (octanol/PBS pH 7.4); assay type: physicochemical
Experimental: Radiolabelled siderophore in 0.5 ml phosphate-buffered saline (PBS) pH = 7.4 was added to 0.5 ml octanol and the mixture was vigorously vortexed for 15 min. The aqueous and organic solvents were separated by centrifugation and 50 μl aliquots of both layers were collected and measured in the automatic gamma counter (WIZARD^2; PerkinElmer, Waltham, USA). Log P values were calculated from obtained data (mean of n = 6).

[3] = In vitro stability in fresh human serum (RP-HPLC); assay type: in vitro ADME; details: for Stability in human serum (%) (n = 1): 37 °C; for in vitro stability (in words): human serum and 6 mM DTPA, all examined media
Experimental: […] After incubation, human serum samples were precipitated with acetonitrile or ethanol, centrifuged (2200×g, 3 min) and the supernatant analyzed. Degradation of the radiolabelled siderophore complexes was evaluated by RP-HPLC. Samples of the DTPA solutions were directly injected onto the HPLC.

[4] = In vitro stability in 6 mM DTPA solution pH 7 (RP-HPLC); assay type: physicochemical; details: 6 mM DTPA pH 7, 37 °C
Experimental: The in vitro stability of radiolabelled siderophores (3–6 μg/100 μl) was tested in fresh human serum (300 μl) and a 6 mM solution of diethylenetriaminepentaacetic acid (DTPA) pH = 7 (100 μl) at 37 °C at several time points (30, […]). After incubation, human serum samples were precipitated with acetonitrile or ethanol, centrifuged (2200×g, 3 min) and the supernatant analyzed. Degradation of the radiolabelled siderophore complexes was evaluated by RP-HPLC. Samples of the DTPA solutions were directly injected onto the HPLC.

[5] = Protein binding in fresh human serum (size-exclusion MicroSpin G-50); assay type: in vitro ADME; details: 37 °C
[6] = Small animal PET/CT imaging in Balb/c mice; assay type: in vivo; details: r.o. injection, 5-10 MBq
Experimental: PET and computed tomography (CT) images were acquired with an Albira PET/SPECT/CT small animal imaging system (Bruker Biospin Corporation, Woodbridge, CT, USA). Female Balb/c mice were r.o. injected with radiolabelled siderophores in a dose of 5–10 MBq corresponding to 0.5–1 μg of siderophore per mouse. Animals were anaesthetized with isoflurane (FORANE, Abbott Laboratories, Abbott Park, IL, USA) (2 % flow rate) and positioned prone head first in the Albira system before the start of imaging. Static PET/CT imaging was carried out 5, 30 and 90 min p.i. for both Ga-68 and Zr-89 labelled siderophores. Animals injected with [^89Zr]siderophores were also imaged 4 h p.i. A 5-min PET scan (axial FOV 148 mm) was performed, followed by a CT scan (axial FOV 65 mm, 45 kVp, 400 μA, at 600 projections). Dynamic imaging was carried out immediately after the injection of radiolabelled siderophore for 90 min (5 min PET scan per frame). Scans were reconstructed with the Albira software (Bruker Biospin Corporation, Woodbridge, CT, USA) using the maximum likelihood expectation maximization (MLEM) and filtered backprojection (FBP) algorithms. After reconstruction, acquired data was viewed and analyzed with PMOD software (PMOD Technologies Ltd., Zurich, Switzerland). 3D images were obtained using VolView software (Kitware, Clifton Park, NY, USA). […]

[7] = Ex vivo biodistribution in Balb/c mice; details: r.o. injection, 30 and 90 min p.i.
Experimental: Biodistibution of radiolabelled siderophores was studied in female Balb/c mice (8 weeks old). Ga-68 and Zr-89 labelled siderophores (1–2 MBq/mouse, corresponding to 0.1–0.2 μg of siderophore per mouse) were injected retro-orbitally (r.o.). Animals were sacrificed by cervical dislocation 30 and 90 min post-injection (p.i.). Organs and tissues (blood, spleen, pancreas, stomach, intestine, kidneys, liver, heart, lung, muscle and femur) were removed and weighed. The amount of radioactivity in the samples was measured in an automatic gamma counter. Results were expressed as percentage of injected dose per gram organ (%ID/g).

Structure (SMILES) | Protein binding (%) (mean, n = 2) ([1]; incubation time 30 min) | Protein binding (%) (mean, n = 2) ([1]; incubation time 60 min) | Protein binding (%) (mean, n = 2) ([1]; incubation time 120 min) | Log P (mean ± SD, n = 6) ([2]; Ga-68 labelled) | Stability in human serum (%) (n = 1) ([3]; incubation time 30 min) | Stability in human serum (%) (n = 1) ([3]; incubation time 60 min) | Stability in human serum (%) (n = 1) ([3]; incubation time 120 min) | in vitro stability (in words) [3] | Stability in DTPA solution (%) (n = 1) ([4]; incubation time 30 min) | Stability in DTPA solution (%) (n = 1) ([4]; incubation time 60 min) | Stability in DTPA solution (%) (n = 1) ([4]; incubation time 120 min) | Protein binding (%) (mean, n = 2) [5]; 1 | Protein binding (%) (mean, n = 2) [5]; 24 | Log P (mean ± SD, n = 6) ([2]; Zr-89 labelled) | Stability in human serum (%) (n = 1) ([3]; Incubation time (min) 4) | Stability in human serum (%) (n = 1) ([3]; incubation time 24 h) | Stability in DTPA solution (%) (n = 1) ([4]; Incubation time (min) 1) | Stability in DTPA solution (%) (n = 1) ([4]; Incubation time (min) 4) | Stability in DTPA solution (%) (n = 1) ([4]; Incubation time (min) 24) | further results
CC(=CC(=O)N([O-])CCCC1NC(=O)CNC(=O)C(CO)NC(=O)C(CO)NC(=O)C(CCCN([O-])C(=O)C=C(C)C(=O)O)NC(=O)C(CCCN([O-])C(=O)C=C(C)C(=O)O)NC1=O)C(=O)O.[89Zr+4] (centres unmarked) [[^89Zr]FCHA] |  |  |  |  |  |  |  | less stable as compared to its Ga-68 labelled counterpart |  |  |  | 2.70 | 31.05 | −3.28 ± 0.37 | 85.42 | 77.38 | 68.70 | 65.27 | 54.22 | protein binding [1]: 31.1%
O=C1CCC(=O)N([O-])CCCCCNC(=O)CCC(=O)N([O-])CCCCCNC(=O)CCC(=O)N([O-])CCCCCN1.[89Zr+4] [[^89Zr]FOXE, [^89Zr]ferrioxamine E] |  |  |  |  |  |  |  |  |  |  |  | 3.27 | 16.59 | −1.91 ± 0.04 | 99.70 | 98.34 | 99.70 | 99.50 | 99.70 | protein binding [1]: 16.6%; kinetics and excretion route in PET imaging (in words) [6]: much slower kinetics and significant hepatobiliary elimination; ex vivo biodistribution (in words) [7]: significantly higher radioactivity accumulation in the intestines and liver
O=C1CCC(=O)N([O-])CCCCCNC(=O)CCC(=O)N([O-])CCCCCNC(=O)CCC(=O)N([O-])CCCCCN1.[68Ga+3] [[^68Ga]FOXE, [^68Ga]ferrioxamine E] | 0.27 | 0.24 | 0.53 | −1.65 ± 0.03 | 99.9 | 99.9 | 99.9 |  | 94.3 | 93.8 | 93.2 |  |  |  |  |  |  |  |  | kinetics and excretion route in PET imaging (in words) [6]: quickly eliminated mainly via the kidneys; ex vivo biodistribution (in words) [7]: slightly higher radioactivity values in gastrointestinal tract
CC(=O)NC1CCCN([O-])C(=O)C=C(C)CCOC(=O)C(NC(C)=O)CCCN([O-])C(=O)C=C(C)CCOC(=O)C(NC(C)=O)CCCN([O-])C(=O)C=C(C)CCOC1=O.[89Zr+4] (centres unmarked) [[^89Zr]TAFC, [^89Zr]triacetylfusarinine C] |  |  |  |  |  |  |  |  |  |  |  | 0.99 | 1.37 | −1.95 ± 0.03 | 98.72 | 98.50 | 99.51 | 99.50 | 99.50 | 

More lines, main results first:

Protein binding (%) (mean, n = 2) ([1]; incubation time 30 min) | Protein binding (%) (mean, n = 2) ([1]; incubation time 60 min) | Protein binding (%) (mean, n = 2) ([1]; incubation time 120 min) | Log P (mean ± SD, n = 6) ([2]; Ga-68 labelled) | Stability in human serum (%) (n = 1) ([3]; incubation time 30 min) | Stability in human serum (%) (n = 1) ([3]; incubation time 60 min) | Stability in human serum (%) (n = 1) ([3]; incubation time 120 min) | in vitro stability (in words) [3] | Stability in DTPA solution (%) (n = 1) ([4]; incubation time 30 min) | Stability in DTPA solution (%) (n = 1) ([4]; incubation time 60 min) | Stability in DTPA solution (%) (n = 1) ([4]; incubation time 120 min) | Protein binding (%) (mean, n = 2) [5]; 1 | Protein binding (%) (mean, n = 2) [5]; 24 | Log P (mean ± SD, n = 6) ([2]; Zr-89 labelled) | Stability in human serum (%) (n = 1) ([3]; Incubation time (min) 4) | Stability in human serum (%) (n = 1) ([3]; incubation time 24 h) | Stability in DTPA solution (%) (n = 1) ([4]; Incubation time (min) 1) | Stability in DTPA solution (%) (n = 1) ([4]; Incubation time (min) 4) | Stability in DTPA solution (%) (n = 1) ([4]; Incubation time (min) 24) | Structure (SMILES) | further results
7.67 | 10.29 | 10.83 | −3.56 ± 0.17 | 74.1 | 72.0 | 75.4 | pronounced in vitro instability | 60.1 | 54.5 | 52.9 |  |  |  |  |  |  |  |  | CC(=O)N([O-])CCCCCNC(=O)CCC(=O)N([O-])CCCCCNC(=O)CCC(=O)N([O-])CCCCCN.[68Ga+3] [[^68Ga]FOXB] | 
 |  |  |  |  |  |  | higher stability in all examined media |  |  |  | 1.63 | 1.84 | −3.01 ± 0.07 | 99.70 | 99.53 | 91.56 | 90.39 | 87.10 | CC(=O)N([O-])CCCCCNC(=O)CCC(=O)N([O-])CCCCCNC(=O)CCC(=O)N([O-])CCCCCN.[89Zr+4] [[^89Zr]FOXB] | 
0.47 | 0.76 | 1.21 | −2.59 ± 0.15 | 99.9 | 99.9 | 99.9 |  | 85.0 | 84.7 | 81.8 |  |  |  |  |  |  |  |  | CC(=O)NC1CCCN([O-])C(=O)C=C(C)CCOC(=O)C(NC(C)=O)CCCN([O-])C(=O)C=C(C)CCOC(=O)C(NC(C)=O)CCCN([O-])C(=O)C=C(C)CCOC1=O.[68Ga+3] (centres unmarked) [[^68Ga]TAFC, [^68Ga]triacetylfusarinine C] | 

From article PMC4870302, “In Vitro and In Vivo Comparison of Selected Ga-68 and Zr-89 Labelled Siderophores” (Molecular Imaging and Biology, 2015)
